Assay results published in US20060014790A1, “Methods of treatment of amyloidosis using spirocyclohexane aspartyl-protease inhibitors” (priority 2004, published 2006).

Tests used:
A-beta = test: Efficacy of compounds to inhibit A-beta concentration (% inhibition vs vehicle control); type: in vivo, rat
Description: Efficacious compounds of the present invention are those able to decrease the amount of A-beta produced compared to a control, where beta-secretase mediated cleavage is observed and measured in the absence of the compounds. Detection of efficacy can be by analysis of A-beta levels, for example, by immunoassay, fluorometric or chromogenic assay, HPLC, or other means of detection. The efficacy of the compounds of formula (I) was determined as a percentage inhibition corresponding to A-beta concentrations for tissue treated and untreated with compound.
The invention encompasses compounds of formula (I) that are efficacious.

[1] = molecular target: catE / beta-secretase (BACE); test: CatE/BACE selectivity (ratio of IC50 values); type: biochemical; conditions: each value is an average of four experimental runs; multiple values = more than one experiment
Description: Selectivity was calculated as a ratio of inhibition (IC50) values in which the inhibition of beta-secretase was compared to the inhibition of other aspartyl proteases.
Selectivity is reported as the ratio of IC50(catE):IC50(BACE).
In the following examples, each value is an average of four experimental runs and multiple values for one compound indicate that more than one experiment was conducted.

[2] = Brain uptake (brain penetration after IV administration); conditions: CF-1, mouse, in vivo, 10 μmol/kg
Description: The following assay was employed to determine the brain penetration of compounds encompassed by the present invention.
In-life phase: Test compounds were administered to CF-1 (20-30 g) mice at 10 μmol/kg (4 to 7 mg/kg) following IV administration in the tail vein. Two time-points, 5 and 60 min, were collected post dose. Four mice were harvested for heparinized plasma and non-perfused brains at each time-point for a total of 8 mice per compound.
Analytical phase: Samples were extracted and evaporated to dryness, then reconstituted and injected onto a reverse phase chromatographic column while monitoring the effluent with a triple quadrupole mass spectrometer. Quantitation was then performed with a 1/x^2 weighted fit of the least-squares regression from calibration standards prepared in parallel with the in vivo samples. The lower limit of quantitation (LOQ) is generally 1 ng/mL and 0.5 ng/g for the plasma and brain respectively. Data was reported in micromolar (μM) units. Brain levels were corrected for plasma volumes (16 μL/g).

SMILES | Efficacy (% Inhibition, 100 mg/kg) plasma (A-beta) | IC50 catE/IC50 BACE [1] | other results
CC(=O)NC(Cc1cc(F)cc(F)c1)C(O)CNC1(c2cccc(C(C)(C)C)c2)CCC(O)CC1 (single isomer, unassigned) [195-5 Diastereomer A, N-[3-[1-(3-tert-Butyl-phenyl)-4-hydroxy-cyclohexylamino]-1-(3,5-difluoro-benzyl)-2-hydroxy-propyl]-acetamide] | 55% |  | 
CONC1CCC(NCC(O)C(Cc2cc(F)cc(F)c2)NC(C)=O)(c2cccc(C(C)(C)C)c2)CC1 (single isomer, unassigned) [195-7 Diastereomer A, N-(4-(1-(3-tert-butylphenyl)-4-(methoxyamino)cyclohexylamino)-1-(3,5-difluorophenyl)-3-hydroxybutan-2-yl)acetamide] | 50% |  | 
CC(=O)NC(Cc1cc(F)cc(F)c1)C(O)CNC1(c2cccc(C(C)(C)C)c2)CCC(NO)CC1 (single isomer, unassigned) [195-8 Diastereomer A, N-(4-(1-(3-tert-butylphenyl)-4-(hydroxyamino)cyclohexylamino)-1-(3,5-difluorophenyl)-3-hydroxybutan-2-yl)acetamide] |  |  | Efficacy (% Inhibition, 100 mg/kg) cortex (A-beta): 7%
CC(=O)NC(Cc1cc(F)cc(F)c1)C(O)CNC1(c2cccc(C(C)(C)C)c2)CCC(NC=O)CC1 (single isomer, unassigned) [196B-36 Diastereomer A, N-(4-(1-(3-tert-butylphenyl)-4-formamidocyclohexylamino)-1-(3,5-difluorophenyl)-3-hydroxybutan-2-yl)acetamide] |  | 26.5 | 
CNC(=O)NC1CCC(NCC(O)C(Cc2cc(F)cc(F)c2)NC(C)=O)(c2cccc(C(C)(C)C)c2)CC1 (single isomer, unassigned) [196B-38 Diastereomer B, 1-(4-(3-acetamido-4-(3,5-difluorophenyl)-2-hydroxybutylamino)-4-(3-tert-butylphenyl)cyclohexyl)-3-methylurea] |  | >3.5 | 
CNC(=O)NC1CCC(NCC(O)C(Cc2cc(F)cc(F)c2)NC(C)=O)(c2cccc(C(C)(C)C)c2)CC1 (single isomer, unassigned) [196B-39 Diastereomer A, 1-(4-(3-acetamido-4-(3,5-difluorophenyl)-2-hydroxybutylamino)-4-(3-tert-butylphenyl)cyclohexyl)-3-methylurea] |  | >1.3 | 
CC(=O)NC(Cc1cc(F)cc(F)c1)C(O)CNC1(c2cccc(C(C)(C)C)c2)CCCCC1 (stereo not drawn) [Example 195-1, N-[3-[1-(3-tert-Butyl-phenyl)-cyclohexylamino]-1-(3,5-difluoro-benzyl)-2-hydroxy-propyl]-acetamide] | 50% |  | Efficacy (% Inhibition, 100 mg/kg) cortex (A-beta): 62%
CC(=O)NC(Cc1cc(F)cc(F)c1)C(O)CNC1(c2cccc(C(C)C)c2)CCC(=O)CC1 (stereo not drawn) [Example 195-2, N-{1-(3,5-Difluoro-benzyl)-2-hydroxy-3-[1-(3-isopropyl-phenyl)-4-oxo-cyclohexylamino]-propyl}acetamide] | 59% |  | Efficacy (% Inhibition, 100 mg/kg) cortex (A-beta): 47%
CC(=O)NC(Cc1cc(F)cc(F)c1)C(O)CNC1(c2cccc(C(C)(C)C)c2)CCC(=O)CC1 (stereo not drawn) [Example 195-3, N-[3-[1-(3-tert-Butyl-phenyl)-4-oxo-cyclohexylamino]-1-(3,5-difluoro-benzyl)-2-hydroxy-propyl]-acetamide] | 58% |  | 
CC(=O)NC(Cc1cc(F)cc(F)c1)C(O)CNC1(c2cccc(-n3cccn3)c2)CCCCC1 (stereo not drawn) [Example 195-4, N-{1-(3,5-Difluoro-benzyl)-2-hydroxy-3-[1-(3-pyrazol-1-yl-phenyl)-cyclohexylamino]-propyl}-acetamide] | 67% |  | 
COC1CCC(NCC(O)C(Cc2cc(F)cc(F)c2)NC(C)=O)(c2cccc(C(C)(C)C)c2)CC1 (stereo not drawn) [Example 195-6, N-[3-[1-(3-tert-Butyl-phenyl)-4-methoxy-cyclohexylamino]-1-(3,5-difluoro-benzyl)-2-hydroxy-propyl]-acetamide] | 49% |  | 
CSC1CCC(NCC(O)C(Cc2cc(F)cc(F)c2)NC(C)=O)(c2cccc(C(C)(C)C)c2)CC1 (stereo not drawn) [Example 195-9, N-[3-[1-(3-tert-Butyl-phenyl)-4-methylsulfanyl-cyclohexylamino]-1-(3,5-difluoro-benzyl)-2-hydroxy-propyl]-acetamide] | 38% |  | 
CC(=O)NC(Cc1cc(F)cc(F)c1)C(O)CNC1(c2cc(F)cc(C(C)(C)C)c2)CCCCC1 (stereo not drawn) [Example 195-10, N-(4-(1-(3-tert-butyl-5-fluorophenyl)cyclohexylamino)-1-(3,5-difluorophenyl)-3-hydroxybutan-2-yl)acetamide] | 30% |  | 
CC(=O)NC(Cc1ccc(O)c(F)c1)C(O)CNC1(c2cccc(C(C)C)c2)CCCCC1 (stereo not drawn) [Example 196B-1, N-{1-(3-Fluoro-4-hydroxy-benzyl)-2-hydroxy-3[1-(3-isopropyl-phenyl)-cyclohexylamino]-propyl}-acetamide] |  | 3.2 | 
CC(=O)NC(Cc1cc(F)cc(F)c1)C(O)CNC1(c2cccc(C(C)C)c2)CCC(=O)CC1 (stereo not drawn) [Example 196B-2, N-{1-(3,5-Difluoro-benzyl)-2-hydroxy-3-[1-(3-isopropyl-phenyl)-4-oxo-cyclohexylamino]-propyl}-acetamide] |  | 3.7 | 
CC(=O)NC(Cc1cc(F)cc(F)c1)C(O)CNC1(c2cccc(C(C)(C)C)c2)CCC(C)CC1 (stereo not drawn) [Example 196B-5, N-[3-[1-(3-tert-Butyl-phenyl)-4-methyl-cyclohexylamino]-1-(3,5-difluoro-benzyl)-2-hydroxy-propyl]-acetamide] |  | 3.1 | 
CC(=O)NC(Cc1cc(F)cc(F)c1)C(O)CNC1(c2cccc(-c3ccsc3)c2)CCC(=O)CC1 (stereo not drawn) [Example 196B-10, N-(1-(3,5-difluorophenyl)-3-hydroxy-4-(4-oxo-1-(3-(thiophen-3-yl)phenyl)cyclohexylamino)butan-2-yl)acetamide] |  | 5.6 | 
CC(=O)NC(Cc1cc(F)cc(F)c1)C(O)CNC1(c2cccc(-n3cccn3)c2)CCC2(CC1)OCCO2 (stereo not drawn) [Example 196B-13, N-{1-(3,5-Difluoro-benzyl)-2-hydroxy-3-[8-(3-pyrazol-1-yl-phenyl)-1,4-dioxa-spiro[4.5]dec-8-ylamino]-propyl}-acetamide] |  | 2.5 | 
CC(=O)NC(Cc1cc(F)cc(F)c1)C(O)CNC1(c2cccc(C(C)(C)C)c2)CCN(CCC#N)CC1 (stereo not drawn) [Example 196B-26, N-[3-[4-(3-tert-Butyl-phenyl)-1-(2-cyano-ethyl)-piperidin-4-ylamino]-1-(3,5-difluoro-benzyl)-2-hydroxy-propyl]-acetamide] |  | 1.8 | 
CC(=O)NC(Cc1cc(F)cc(F)c1)C(O)CNC1(c2cccc(C(C)(C)C)c2)CCCN(C)C1 (stereo not drawn) [Example 196B-32, N-(4-(3-(3-tert-butylphenyl)-1-methylpiperidin-3-ylamino)-1-(3,5-difluorophenyl)-3-hydroxybutan-2-yl)acetamide] |  | >2,0 | 
CC(=O)NC(Cc1cc(F)cc(F)c1)C(O)CNC1(c2cccc(Br)c2)CCC2(CC1)OCCO2 (stereo not drawn) [Example 196B-40, N-[3-[8-(3-Bromo-phenyl)-1,4-dioxa-spiro[4.5]dec-8-ylamino]-1-(3,5-difluoro-benzyl)-2-hydroxy-propyl]-acetamide] |  | 2.8 | 
CC(=O)NC(Cc1cc(F)cc(F)c1)C(O)CNC1(c2cccc(C(C)(C)C)c2)CCC(C#N)CC1 (stereo not drawn) [Example 196B-41, N-[3-[1-(3-tert-Butyl-phenyl)-4-cyano-cyclohexylamino]-1-(3,5-difluoro-benzyl)-2-hydroxy-propyl]-acetamide] |  | 2.5 | 
CC(=O)NC(Cc1cc(F)cc(F)c1)C(O)CNC1(c2cccc(C(C)(C)C)c2)CCCCC1 (stereo not drawn) [Example 198-1, N-[3-[1-(3-tert-Butyl-phenyl)-cyclohexylamino]-1-(3,5-difluoro-benzyl)-2-hydroxy-propyl]-acetamide] |  |  | Kp at 5 min [2]: 1.7; Kp at 10 min [2]: 3
CC(=O)NC(Cc1cc(F)cc(F)c1)C(O)CNC1(c2cccc(C(C)C)c2)CCC(=O)CC1 (stereo not drawn) [Example 198-3, N-{1-(3,5-Difluoro-benzyl)-2-hydroxy-3-[1-(3-isopropyl-phenyl)-4-oxo-cyclohexylamino]-propyl}-acetamide] |  |  | Kp at 5 min [2]: 0.5; Kp at 10 min [2]: 8.4
CC(=O)NC(Cc1cc(F)cc(F)c1)C(O)CNC1(c2cccc(-c3ccsc3)c2)CCCCC1 (stereo not drawn) [Example 198-4, N-{1-(3,5-Difluoro-benzyl)-2-hydroxy-3-[1-(3-thiophen-3-yl-phenyl)-cyclohexylamino]-propyl}acetamide] |  |  | Kp at 5 min [2]: 0.7; Kp at 10 min [2]: 3.7
